# Reference: the supplement of paper PMC4862054
# Tested on: BT-474
# Test: normalised response (% of control), CellTox Green; higher = less cell death (100 = DMSO, 0 = benzethonium chloride kill control)
# Conditions: incubation time: 72 h
# Method in brief: (§1)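 Two readouts were taken after 72 h: CellTox Green fluorescence (485/520 nm) first, then CellTiter-Glo luminescence after 10 min at room temperature. Breast cancer cell lines had been seeded as 20 µl suspension into 384-well plates holding compound at 5 concentrations in 10-fold steps across a compound-specific 10,000-fold range. Each value is a normalised signal at a single concentration, with plates scaled to 0.1 % DMSO (100) and a positive kill control (0).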
row,Structure (SMILES),normalised response
1,CCN(CC)CCCC(C)Nc1c2ccc(Cl)cc2nc2ccc(OC)cc12 (stereo not drawn) [Mepacrine] (500 nM),103%
2,C=CC(=O)Nc1cc2c(Nc3ccc(F)c(Cl)c3)ncnc2cc1OCCCN1CCOCC1 [Canertinib] (100 nM),84.4%
3,Cc1ccc(-c2cc(C(F)(F)F)nn2-c2ccc(S(N)(=O)=O)cc2)cc1 [Celecoxib] (100 nM),99.5%
4,C=CCc1cccc(/C=N/NC(=O)CN2CCN(Cc3ccccc3)CC2)c1O [PAC-1] (100 nM),103%
5,O=C(O)C(=O)O.[NH-][C@@H]1CCCC[C@H]1[NH-].[Pt+2] [Oxaliplatin] (10000 nM),96.6%

# Tested on: BT-549
# Test: as above
# Conditions: incubation time: 72 h
# Method in brief: as §1
row,Structure (SMILES),normalised response
1,CCN(CC)CCCC(C)Nc1c2ccc(Cl)cc2nc2ccc(OC)cc12 (stereo not drawn) [Mepacrine] (500 nM),103%
2,C=CC(=O)Nc1cc2c(Nc3ccc(F)c(Cl)c3)ncnc2cc1OCCCN1CCOCC1 [Canertinib] (100 nM),75.7%
3,Cc1ccc(-c2cc(C(F)(F)F)nn2-c2ccc(S(N)(=O)=O)cc2)cc1 [Celecoxib] (100 nM),90.5%
4,C=CCc1cccc(/C=N/NC(=O)CN2CCN(Cc3ccccc3)CC2)c1O [PAC-1] (100 nM),101%
5,O=C(O)C(=O)O.[NH-][C@@H]1CCCC[C@H]1[NH-].[Pt+2] [Oxaliplatin] (10000 nM),108%

# Tested on: CAL-120
# Test: as above
# Conditions: incubation time: 72 h
# Method in brief: as §1
row,Structure (SMILES),normalised response
1,CCN(CC)CCCC(C)Nc1c2ccc(Cl)cc2nc2ccc(OC)cc12 (stereo not drawn) [Mepacrine] (500 nM),-33%
2,C=CC(=O)Nc1cc2c(Nc3ccc(F)c(Cl)c3)ncnc2cc1OCCCN1CCOCC1 [Canertinib] (100 nM),97.6%
3,Cc1ccc(-c2cc(C(F)(F)F)nn2-c2ccc(S(N)(=O)=O)cc2)cc1 [Celecoxib] (100 nM),102%
4,C=CCc1cccc(/C=N/NC(=O)CN2CCN(Cc3ccccc3)CC2)c1O [PAC-1] (100 nM),106%
5,O=C(O)C(=O)O.[NH-][C@@H]1CCCC[C@H]1[NH-].[Pt+2] [Oxaliplatin] (10000 nM),99.1%

# Tested on: CAL-148
# Test: as above
# Conditions: incubation time: 72 h
# Method in brief: as §1
row,Structure (SMILES),normalised response
1,CCN(CC)CCCC(C)Nc1c2ccc(Cl)cc2nc2ccc(OC)cc12 (stereo not drawn) [Mepacrine] (500 nM),74.7%
2,C=CC(=O)Nc1cc2c(Nc3ccc(F)c(Cl)c3)ncnc2cc1OCCCN1CCOCC1 [Canertinib] (100 nM),104%
3,Cc1ccc(-c2cc(C(F)(F)F)nn2-c2ccc(S(N)(=O)=O)cc2)cc1 [Celecoxib] (100 nM),95.4%
4,C=CCc1cccc(/C=N/NC(=O)CN2CCN(Cc3ccccc3)CC2)c1O [PAC-1] (100 nM),107%

# Tested on: CAL-51
# Test: as above
# Conditions: incubation time: 72 h
# Method in brief: as §1
row,Structure (SMILES),normalised response
1,CCN(CC)CCCC(C)Nc1c2ccc(Cl)cc2nc2ccc(OC)cc12 (stereo not drawn) [Mepacrine] (500 nM),66.9%
2,C=CC(=O)Nc1cc2c(Nc3ccc(F)c(Cl)c3)ncnc2cc1OCCCN1CCOCC1 [Canertinib] (100 nM),98.2%
3,Cc1ccc(-c2cc(C(F)(F)F)nn2-c2ccc(S(N)(=O)=O)cc2)cc1 [Celecoxib] (100 nM),111%
4,C=CCc1cccc(/C=N/NC(=O)CN2CCN(Cc3ccccc3)CC2)c1O [PAC-1] (100 nM),98.2%
5,O=C(O)C(=O)O.[NH-][C@@H]1CCCC[C@H]1[NH-].[Pt+2] [Oxaliplatin] (10000 nM),79.2%

# Tested on: CAL-85-1
# Test: as above
# Conditions: incubation time: 72 h
# Method in brief: as §1
row,Structure (SMILES),normalised response
1,CCN(CC)CCCC(C)Nc1c2ccc(Cl)cc2nc2ccc(OC)cc12 (stereo not drawn) [Mepacrine] (500 nM),104%
2,C=CC(=O)Nc1cc2c(Nc3ccc(F)c(Cl)c3)ncnc2cc1OCCCN1CCOCC1 [Canertinib] (100 nM),72.3%
3,Cc1ccc(-c2cc(C(F)(F)F)nn2-c2ccc(S(N)(=O)=O)cc2)cc1 [Celecoxib] (100 nM),101%
4,C=CCc1cccc(/C=N/NC(=O)CN2CCN(Cc3ccccc3)CC2)c1O [PAC-1] (100 nM),99.7%
5,O=C(O)C(=O)O.[NH-][C@@H]1CCCC[C@H]1[NH-].[Pt+2] [Oxaliplatin] (10000 nM),128%

# Tested on: DU-4475
# Test: as above
# Conditions: incubation time: 72 h
# Method in brief: as §1
row,Structure (SMILES),normalised response
1,CCN(CC)CCCC(C)Nc1c2ccc(Cl)cc2nc2ccc(OC)cc12 (stereo not drawn) [Mepacrine] (500 nM),108%
2,C=CC(=O)Nc1cc2c(Nc3ccc(F)c(Cl)c3)ncnc2cc1OCCCN1CCOCC1 [Canertinib] (100 nM),105%
3,Cc1ccc(-c2cc(C(F)(F)F)nn2-c2ccc(S(N)(=O)=O)cc2)cc1 [Celecoxib] (100 nM),101%
4,C=CCc1cccc(/C=N/NC(=O)CN2CCN(Cc3ccccc3)CC2)c1O [PAC-1] (100 nM),102%
5,O=C(O)C(=O)O.[NH-][C@@H]1CCCC[C@H]1[NH-].[Pt+2] [Oxaliplatin] (10000 nM),96.8%

# Tested on: HCC1143
# Test: as above
# Conditions: incubation time: 72 h
# Method in brief: as §1
row,Structure (SMILES),normalised response
1,CCN(CC)CCCC(C)Nc1c2ccc(Cl)cc2nc2ccc(OC)cc12 (stereo not drawn) [Mepacrine] (500 nM),109%
2,C=CC(=O)Nc1cc2c(Nc3ccc(F)c(Cl)c3)ncnc2cc1OCCCN1CCOCC1 [Canertinib] (100 nM),94.3%
3,Cc1ccc(-c2cc(C(F)(F)F)nn2-c2ccc(S(N)(=O)=O)cc2)cc1 [Celecoxib] (100 nM),98.9%
4,C=CCc1cccc(/C=N/NC(=O)CN2CCN(Cc3ccccc3)CC2)c1O [PAC-1] (100 nM),110%
5,O=C(O)C(=O)O.[NH-][C@@H]1CCCC[C@H]1[NH-].[Pt+2] [Oxaliplatin] (10000 nM),68.5%

# Tested on: HCC1599
# Test: as above
# Conditions: incubation time: 72 h
# Method in brief: as §1
row,Structure (SMILES),normalised response
1,CCN(CC)CCCC(C)Nc1c2ccc(Cl)cc2nc2ccc(OC)cc12 (stereo not drawn) [Mepacrine] (500 nM),93.8%
2,C=CC(=O)Nc1cc2c(Nc3ccc(F)c(Cl)c3)ncnc2cc1OCCCN1CCOCC1 [Canertinib] (100 nM),114%
3,Cc1ccc(-c2cc(C(F)(F)F)nn2-c2ccc(S(N)(=O)=O)cc2)cc1 [Celecoxib] (100 nM),95.6%
4,C=CCc1cccc(/C=N/NC(=O)CN2CCN(Cc3ccccc3)CC2)c1O [PAC-1] (100 nM),99.4%
